≈ marks a conversion by molar mass, not a printed value. Like-named read-outs stand apart in the source and are kept apart here.
What was measured:
[1] = target: T1, GTF C (Streptococcus mutans serotype c, UniProt P13470); assay: GTF activity in solution, GTF C; type: biochemical; conditions: mean (SD)
T1 construct: The supernatant was carefully collected as the source of GTF C; made in house; host or cells: Streptococcus mutans WHB 410 (endogenous gtfC; urea/Triton extract of washed cells, hydroxyapatite chromatography)
Method: (§1) Glucosyltransferase activity was measured by the incorporation of [^14C-glucose] from labeled sucrose (NEN Research Products, Boston, Mass.) into glucans (Germaine et al., 1974; Venkitaraman et al., 1995). The GTF enzyme added to each sample for all assays was equivalent to the amount required to incorporate 1.0-1.5 μmol of glucose over the four hours reaction (1.0-1.5 units).
(§2) For solution assays, purified GTF B, C, D and Ss were mixed with a two-fold dilution series of the test compounds (concentration ranging from 125 to 500 μM) and incubated with [^14C-glucose]-sucrose substrate (0.2 μCi/ml) (200.0 mmol/l sucrose, 40 μmol/l dextran 9000, 0.02% sodium azide in adsorption buffer—50 mM KCl, 1.0 mM KPO4, 1.0 mM CaCl2, 0.1 mM MgCl2−pH=6.5) to reach a final concentration of 100 mmol/l sucrose (200 μl final volume). For the control, the same reaction was carried out, where ethanol:DMSO (final concentration of 7.5% and 1.25%, v/v) or ethanol (final concentration of 5%, v/v) replaced the test agent solutions. The samples were incubated 37° C. with rocking for 4 h. After incubation, ice-cold ethanol (1.0 ml) was added and the samples were stored for 18 h, 4° C. for precipitation of glucans. Radiolabeled glucan was determined by scintillation counting (Germaine et al., 1974; Venkitaraman et al., 1995).

[2] = target: T1, GTF C; assay: GTF activity adsorbed onto sHA surface, GTF C; type: biochemical; conditions: mean (SD)
Method: as §1
(§3) For surface assays, the GTFs were adsorbed to hydroxyapatite beads coated with clarified whole saliva (free of GTF activity), as detailed elsewhere (Koo et al., 2000c; Schilling and Bowen, 1988, Venkitaraman et al., 1995). The saliva-coated hydroxyapatite (sHA) beads were exposed to sufficient enzyme to saturate the surface as determined experimentally. Following the adsorption of the enzyme, the beads were washed 3 times with buffer to remove the loosely bound material and exposed to 300 μl of the two-fold dilution series of test compounds (or control) for 30 min. at the same concentrations described above. The beads were washed and exposed to 300 μl [^14C-glucose]-sucrose substrate (100.0 mmol/l sucrose, final concentration). The radiolabeled glucan formed was collected and quantified by scintillation counting (Germaine et al., 1974; Venkitaraman et al., 1995). All the solution and surface assays were done in quadruplicate in at least 3 different experiments.

[3] = target: T2, GTF B (Streptococcus mutans serotype c, UniProt P08987); assay: GTF activity adsorbed onto saliva-coated hydroxyapatite (sHA) surface, GTF B; type: biochemical; conditions: mean (SD)
T2 construct: made in house; host or cells: Streptococcus milleri KSB8 (culture supernatant)
Method: as §1, §3

[4] = target: T3, GTF D (Streptococcus mutans serotype c, UniProt P49331); assay: GTF activity adsorbed onto sHA surface, GTF D; type: biochemical; conditions: mean (SD)
T3 construct: made in house; host or cells: Streptococcus milleri NH5 (culture supernatant)
Method: as §1, §3

[5] = target: T4, GTF Ss (Streptococcus sanguinis, UniProt A3CLJ9); assay: GTF activity adsorbed onto sHA surface, GTF Ss; type: biochemical, S. sanguinis; conditions: mean (SD)
Method: as §1, §3

[6] = target: T4, GTF Ss; assay: GTF activity in solution, GTF Ss; type: biochemical, S. sanguinis; conditions: mean (SD)
Method: as §1, §2

[7] = system: Mutans Streptococci Strains; assay: MIC and MBC, broth dilution, all strains stated together; type: cell-based, S. mutans (GS-5 and UA159) and S. sobrinus 6715
Method: (§4) The minimum inhibitory concentration (MIC) and minimum bactericidal concentration (MBC) were determined for each test compound according to the National Committee for Clinical Laboratory Standards guidelines (Tentative standard M26-T, 1992; NCCLS Publication No. M7-A5, 2000) and Koo et al. (2000b). The broth microdilution and macrodilution methods (in TSB) were used for the antibacterial tests. The starting inoculum was 5×10^5 CFU/ml and the concentrations of test compounds ranged from 15.6 to 500 μM (two-fold dilutions). The MICs and MBCs were determined in quadruplicate in at least 3 different experiments.

[8] = target: T3, GTF D; assay: GTF activity in solution, GTF D; type: biochemical; conditions: mean (SD)
Method: as §1, §2

[9] = system: Streptococcus mutans UA 159; assay: MIC and MBC, broth dilution; type: cell-based
Method: as §4

[10] = system: Streptococcus sobrinus 6715; assay: MIC and MBC, broth dilution; type: cell-based
Method: as §4

[11] = system: Streptococcus mutans GS-5; assay: MIC and MBC, broth dilution; type: cell-based
Method: as §4

[12] = target: T2, GTF B; assay: GTF activity in solution, GTF B; type: biochemical; conditions: mean (SD)
Method: as §1, §2

[13] = all strains tested (S. mutans GS-5, UA159, S. sobrinus 6715), read-out: MIC
[14] = Streptococcus mutans, all strains tested (S. mutans GS-5, UA159, S. sobrinus 6715), read-out: MIC

T1 sequence (P13470 35-1455): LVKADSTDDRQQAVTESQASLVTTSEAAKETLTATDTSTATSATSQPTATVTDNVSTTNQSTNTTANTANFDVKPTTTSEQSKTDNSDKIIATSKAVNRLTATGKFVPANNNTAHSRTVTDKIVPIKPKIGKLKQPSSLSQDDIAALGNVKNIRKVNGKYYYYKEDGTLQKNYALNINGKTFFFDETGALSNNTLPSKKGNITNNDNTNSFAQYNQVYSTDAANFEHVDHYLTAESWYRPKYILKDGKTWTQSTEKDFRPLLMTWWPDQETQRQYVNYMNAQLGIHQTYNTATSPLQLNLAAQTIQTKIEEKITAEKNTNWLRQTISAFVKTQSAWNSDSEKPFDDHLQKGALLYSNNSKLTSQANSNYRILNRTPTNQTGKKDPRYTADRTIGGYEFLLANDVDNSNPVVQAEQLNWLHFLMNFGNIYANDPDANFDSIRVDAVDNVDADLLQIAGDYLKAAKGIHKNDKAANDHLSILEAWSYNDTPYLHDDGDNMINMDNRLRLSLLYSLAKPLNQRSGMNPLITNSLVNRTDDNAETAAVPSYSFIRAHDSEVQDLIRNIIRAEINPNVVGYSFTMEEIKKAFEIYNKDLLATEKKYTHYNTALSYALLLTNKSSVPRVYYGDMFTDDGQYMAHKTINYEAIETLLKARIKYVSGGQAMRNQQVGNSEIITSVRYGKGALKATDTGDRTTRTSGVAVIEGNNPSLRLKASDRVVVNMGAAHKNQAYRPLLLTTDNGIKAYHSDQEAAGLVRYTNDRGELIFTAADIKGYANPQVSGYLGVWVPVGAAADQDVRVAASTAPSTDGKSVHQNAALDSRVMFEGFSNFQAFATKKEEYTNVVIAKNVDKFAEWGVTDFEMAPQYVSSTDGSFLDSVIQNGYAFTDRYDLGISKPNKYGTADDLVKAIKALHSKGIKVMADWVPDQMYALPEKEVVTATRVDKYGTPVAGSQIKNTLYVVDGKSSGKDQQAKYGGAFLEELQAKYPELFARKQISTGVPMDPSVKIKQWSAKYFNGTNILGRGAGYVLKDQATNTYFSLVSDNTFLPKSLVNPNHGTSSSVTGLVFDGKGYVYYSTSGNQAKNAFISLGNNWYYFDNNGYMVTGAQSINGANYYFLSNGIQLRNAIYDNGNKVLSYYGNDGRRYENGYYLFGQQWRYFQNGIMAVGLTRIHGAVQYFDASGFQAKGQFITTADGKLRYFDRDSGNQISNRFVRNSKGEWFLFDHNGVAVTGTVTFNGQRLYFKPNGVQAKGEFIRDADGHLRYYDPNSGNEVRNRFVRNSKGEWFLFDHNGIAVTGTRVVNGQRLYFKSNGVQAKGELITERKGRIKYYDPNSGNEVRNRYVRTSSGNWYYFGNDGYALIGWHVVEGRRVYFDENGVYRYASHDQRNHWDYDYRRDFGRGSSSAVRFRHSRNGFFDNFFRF
T2 sequence (P08987 35-1476): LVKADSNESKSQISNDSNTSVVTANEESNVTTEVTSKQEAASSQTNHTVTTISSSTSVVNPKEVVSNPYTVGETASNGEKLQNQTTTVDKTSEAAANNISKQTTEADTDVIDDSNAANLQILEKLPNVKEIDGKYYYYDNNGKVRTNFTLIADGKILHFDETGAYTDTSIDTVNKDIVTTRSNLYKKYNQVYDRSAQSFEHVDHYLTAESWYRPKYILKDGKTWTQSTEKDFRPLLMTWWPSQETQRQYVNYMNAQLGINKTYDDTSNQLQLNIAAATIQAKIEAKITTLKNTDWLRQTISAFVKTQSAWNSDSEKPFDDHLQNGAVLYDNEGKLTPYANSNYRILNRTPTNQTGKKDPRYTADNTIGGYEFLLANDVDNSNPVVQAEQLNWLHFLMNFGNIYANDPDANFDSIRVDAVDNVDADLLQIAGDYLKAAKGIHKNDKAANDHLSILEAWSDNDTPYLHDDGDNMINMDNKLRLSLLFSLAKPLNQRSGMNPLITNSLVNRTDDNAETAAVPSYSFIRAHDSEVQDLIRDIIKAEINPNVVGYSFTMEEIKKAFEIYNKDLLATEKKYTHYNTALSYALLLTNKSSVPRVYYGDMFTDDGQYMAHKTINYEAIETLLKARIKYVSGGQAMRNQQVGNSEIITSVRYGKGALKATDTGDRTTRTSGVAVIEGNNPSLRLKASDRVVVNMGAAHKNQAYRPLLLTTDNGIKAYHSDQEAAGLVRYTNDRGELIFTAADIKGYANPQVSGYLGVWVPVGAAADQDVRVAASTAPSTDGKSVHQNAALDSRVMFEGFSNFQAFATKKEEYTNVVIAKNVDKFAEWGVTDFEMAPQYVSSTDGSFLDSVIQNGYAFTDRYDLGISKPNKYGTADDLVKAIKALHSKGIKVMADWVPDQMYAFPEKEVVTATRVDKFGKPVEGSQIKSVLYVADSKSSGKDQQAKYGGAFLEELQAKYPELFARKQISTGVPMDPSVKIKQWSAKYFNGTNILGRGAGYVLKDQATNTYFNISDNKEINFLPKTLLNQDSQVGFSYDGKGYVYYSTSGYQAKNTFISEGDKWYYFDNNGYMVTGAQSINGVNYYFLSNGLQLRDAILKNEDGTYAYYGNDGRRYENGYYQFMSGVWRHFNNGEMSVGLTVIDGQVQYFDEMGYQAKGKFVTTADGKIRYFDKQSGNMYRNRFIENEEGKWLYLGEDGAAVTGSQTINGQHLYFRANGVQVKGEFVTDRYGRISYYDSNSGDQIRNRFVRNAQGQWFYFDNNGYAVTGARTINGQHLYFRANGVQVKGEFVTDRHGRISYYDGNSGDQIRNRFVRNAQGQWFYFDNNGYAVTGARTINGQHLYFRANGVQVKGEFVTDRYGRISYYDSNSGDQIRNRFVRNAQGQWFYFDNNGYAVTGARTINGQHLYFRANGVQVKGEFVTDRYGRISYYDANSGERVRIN
T3 sequence (P49331 whole entry): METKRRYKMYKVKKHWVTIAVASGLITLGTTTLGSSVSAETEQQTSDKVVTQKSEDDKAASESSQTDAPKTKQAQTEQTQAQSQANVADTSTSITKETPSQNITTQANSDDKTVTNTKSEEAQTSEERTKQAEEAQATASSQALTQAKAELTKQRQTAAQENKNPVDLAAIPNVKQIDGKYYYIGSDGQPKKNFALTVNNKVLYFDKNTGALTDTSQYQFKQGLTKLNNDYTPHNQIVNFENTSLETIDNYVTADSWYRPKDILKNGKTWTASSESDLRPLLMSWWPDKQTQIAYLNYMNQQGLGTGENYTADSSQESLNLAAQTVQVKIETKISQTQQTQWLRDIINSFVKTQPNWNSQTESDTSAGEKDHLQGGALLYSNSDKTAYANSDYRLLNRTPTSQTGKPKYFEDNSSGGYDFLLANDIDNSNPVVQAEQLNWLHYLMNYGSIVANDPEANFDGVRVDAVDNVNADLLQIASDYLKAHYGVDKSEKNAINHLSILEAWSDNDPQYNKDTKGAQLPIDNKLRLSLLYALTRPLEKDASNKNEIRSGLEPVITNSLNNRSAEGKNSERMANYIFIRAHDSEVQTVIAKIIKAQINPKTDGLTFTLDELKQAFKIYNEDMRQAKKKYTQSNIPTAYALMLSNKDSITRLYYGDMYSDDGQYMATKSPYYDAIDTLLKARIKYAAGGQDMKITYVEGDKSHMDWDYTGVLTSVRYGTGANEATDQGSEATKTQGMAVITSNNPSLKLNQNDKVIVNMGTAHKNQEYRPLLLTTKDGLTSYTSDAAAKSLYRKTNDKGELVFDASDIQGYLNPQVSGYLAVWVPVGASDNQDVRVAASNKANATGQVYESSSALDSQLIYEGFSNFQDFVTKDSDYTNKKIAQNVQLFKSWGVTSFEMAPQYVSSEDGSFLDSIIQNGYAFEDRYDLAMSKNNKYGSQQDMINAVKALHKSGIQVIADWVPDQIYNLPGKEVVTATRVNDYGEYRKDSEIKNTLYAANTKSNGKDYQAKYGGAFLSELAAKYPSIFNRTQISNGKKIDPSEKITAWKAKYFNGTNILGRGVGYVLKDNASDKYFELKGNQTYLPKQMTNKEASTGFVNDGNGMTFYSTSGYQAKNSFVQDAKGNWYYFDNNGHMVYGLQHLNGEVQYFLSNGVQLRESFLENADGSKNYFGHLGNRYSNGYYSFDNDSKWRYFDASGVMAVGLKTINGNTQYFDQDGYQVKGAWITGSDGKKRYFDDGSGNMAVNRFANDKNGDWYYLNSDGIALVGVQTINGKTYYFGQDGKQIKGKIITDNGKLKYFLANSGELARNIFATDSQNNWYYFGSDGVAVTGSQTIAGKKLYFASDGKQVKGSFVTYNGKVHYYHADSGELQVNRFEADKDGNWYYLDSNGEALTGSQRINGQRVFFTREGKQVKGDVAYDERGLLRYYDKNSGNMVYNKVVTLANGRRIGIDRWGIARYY

Row | SMILES | GTF C sol. % of Inhib. ([1]; 125 μM) | GTF C sol. % of Inhib. ([1]; 250 μM) | GTF C sol. % of Inhib. ([1]; 500 μM) | GTF C surf. % of Inhib. ([2]; 125 μM) | GTF C surf. % of Inhib. ([2]; 250 μM) | GTF C surf. % of Inhib. ([2]; 500 μM) | GTF B surf. % of Inhib. ([3]; 125 μM) | GTF B surf. % of Inhib. ([3]; 250 μM) | GTF B surf. % of Inhib. ([3]; 500 μM) | GTF D surf. % of Inhib. ([4]; 125 μM) | GTF D surf. % of Inhib. ([4]; 250 μM) | GTF D surf. % of Inhib. ([4]; 500 μM) | GTF Ss surf. % of Inhib. ([5]; 125 μM) | GTF Ss surf. % of Inhib. ([5]; 250 μM) | MBC [9] [µM] | MIC [9] [µM] | MBC ([10]; Streptococcus sobrinus 6715) [µM] | MIC ([10]; Streptococcus sobrinus 6715) [µM] | MBC [11] [µM] | MIC [11] [µM] | further results
1 | CC(=O)O[C@H]1C(=O)c2c(O)cc(O)cc2O[C@@H]1c1ccccc1 [Pinobanksin-3-acetate] | 0.0 (0.0) % | 3.5 (4.2) % | 16.7 (4.3) % | 0.0 (0.1) % | 0.0 (0.0) % | 0.0 (3.3) % | 9.4 (4.8) % | 7.3 (2.1) % | 10.3 (3.5) % | 0.0 (0.0) % | 4.5 (2.0) % | 10.1 (2.8) % | 0.0 (0.6) % | 0.0 (2.7) % | >500 | 500 (≈ 157 µg/mL) | >500 | 250 (≈ 78.6 µg/mL) | >500 | 500 (≈ 157 µg/mL) | GTF Ss surf. % of Inhib. ([5]; 500 μM): 9.9 (5.9) %; GTF Ss sol. % of Inhib. ([6]; 125 μM): 4.6 (5.7) %; GTF Ss sol. % of Inhib. ([6]; 250 μM): 22.8 (3.6) %; GTF Ss sol. % of Inhib. ([6]; 500 μM): 30.5 (7.2) %; MIC ([7]; all strains tested): 157 µg/mL; MIC [7, 13]: 500 µM; GTF D sol. % of Inhib. ([8]; 125 μM): 5.5 (4.5) %; GTF D sol. % of Inhib. ([8]; 250 μM): 2.7 (3.3) %; GTF D sol. % of Inhib. ([8]; 500 μM): 3.5 (2.1) %; GTF B sol. % of Inhib. ([12]; 125 μM): 0.0 (0.8) %; GTF B sol. % of Inhib. ([12]; 250 μM): 7.7 (3.5) %; GTF B sol. % of Inhib. ([12]; 500 μM): 18.9 (2.8) %
2 | O=C1C[C@@H](c2ccccc2)Oc2cc(O)cc(O)c21 [Pinocembrin] | 0.0 (0.7) % | 8.5 (3.2) % | 17.2 (4.2) % | 0.0 (0.0) % | 0.4 (0.1) % | 13.5 (4.9) % | 0.7 (3.3) % | 8.8 (4.3) % | 18.9 (5.4) % | 0.0 (0.7) % | 8.2 (2.7) % | 15.5 (6.2) % | 0.0 (0.2) % | 0.0 (4.2) % | >500 | 250 (≈ 64.1 µg/mL) | 500 | 250 (≈ 64.1 µg/mL) | >500 | 250 (≈ 64.1 µg/mL) | GTF Ss surf. % of Inhib. ([5]; 500 μM): 10.5 (2.7) %; GTF Ss sol. % of Inhib. ([6]; 125 μM): 25.7 (4.1) %; GTF Ss sol. % of Inhib. ([6]; 250 μM): 32.6 (6.8) %; GTF Ss sol. % of Inhib. ([6]; 500 μM): 45.7 (8.3) %; MIC ([7]; all strains tested): 64 µg/mL; MIC [7, 13]: 250 µM; GTF D sol. % of Inhib. ([8]; 125 μM): 1.5 (0.1) %; GTF D sol. % of Inhib. ([8]; 250 μM): 4.8 (2.7) %; GTF D sol. % of Inhib. ([8]; 500 μM): 14.9 (4.2) %; MBC ([10]; S. sobrinus 6715): 128 µg/mL; GTF B sol. % of Inhib. ([12]; 125 μM): 3.7 (5.2) %; GTF B sol. % of Inhib. ([12]; 250 μM): 7.2 (1.6) %; GTF B sol. % of Inhib. ([12]; 500 μM): 15.9 (4.7) %
3 | COc1cc(O)c2c(c1)O[C@H](c1ccc(O)cc1)CC2=O [Sakuranetin] |  |  |  |  |  |  |  |  |  |  |  |  |  |  | >500 | >500 | >500 | 500 (≈ 143 µg/mL) | >500 | >500 | 
4 | COc1cc(C=O)cc(OC)c1O [Syringaldehyde] |  |  |  |  |  |  |  |  |  |  |  |  |  |  |  |  |  |  |  |  | MIC ([7]; Streptococcus mutans): > 500 µM
5 | COc1cc(C=O)ccc1O [Vanillin] |  |  |  |  |  |  |  |  |  |  |  |  |  |  |  |  |  |  |  |  | MIC [7, 14]: > 500 µM
6 | O=C(O)/C=C/c1ccc(O)cc1 [p-Coumaric acid] |  |  |  |  |  |  |  |  |  |  |  |  |  |  |  |  |  |  |  |  | MIC [7, 14]: > 500 µM
